From publication PMC11684029, “Discovery of VU6024578/BI02982816: An mGlu1 Positive Allosteric Modulator with Efficacy in Preclinical Antipsychotic and Cognition Models” (Journal of Medicinal Chemistry, 2024)
Values after ≈ are worked out from the molar mass of the structure shown. “Also recorded” adds a separate entry of the source. Like-named read-outs stand apart in the source and are kept apart here.

Tests used:
human mGlu1 = target: T1, human mGlu1 (Homo sapiens, UniProt Q13255); test: progressive fold-shift assay, operational model of allosterism; type: cell-based
T1 construct: expressed in transfected cells; pcDNA5/TO)
Description: (§1) To further characterize this novel mGlu1 PAM, we performed progressive fold-shift assays at both human and rat mGlu1 (Figure 4).
(§2) Figure 4 Operational modeling of the effects of increasing concentrations of VU6024578 (19d) on rat (A) and human (B) mGlu1receptors. Increasing amounts of 19d were applied prior to increasing concentrations of glutamate at either rat or human mGlu1. Data were fit in GraphPad Prism as indicated in the Methods section; for panel A, log α was 0.95 and for panel B it was 1.26. Data represent one experiment performed in duplicate.

rat mGlu1 = rat mGlu1 (Rattus norvegicus, UniProt P23385); test: as above; type: cell-based
Description: as §1, §2

[1] = solubility (kinetic, FaSSIF, FaSSGF); type: physicochemical
Description: Over the course of the mGlu1 PAM program, 19d became an assay standard and was assayed multiple times, affording refined potency values.[20]

[2] = plasma protein binding, equilibrium dialysis; type: in vitro ADME, human; conditions: fraction unbound
Description: (§3) The protein binding of each compound was determined in plasma via equilibrium dialysis employing RED Plates (ThermoFisher Scientific, Rochester, NY). Plasma was added to the 96 well plate containing test compound and mixed thoroughly for a final concentration of 5 μM. Subsequently, an aliquot of the plasma-compound mixture was transferred to the cis chamber (red) of the RED plate, with an phosphate buffer (25 mM, pH 7.4) in the trans chamber. The RED plate was sealed and incubated for 4 h at 37 °C with shaking. At completion, aliquots from each chamber were diluted 1:1 with either plasma (cis) or buffer (trans) and transferred to a new 96 well plate, at which time ice-cold acetonitrile containing internal standard (50 ng/mL carbamazepine) (2 volumes) was added to extract the matrices. The plate was centrifuged (3000 rcf, 10 min) and supernatants transferred and diluted 1:1 (supernatant: water) into a new 96 well plate, which was then sealed in preparation for LC/MS/MS analysis. Each compound was assayed in triplicate within the same 96-well plate. Fraction unbound was determined using the following equation [drawing 1]

[3] = plasma protein binding, equilibrium dialysis; type: in vitro ADME, rat; conditions: fraction unbound
Description: as §3

[4] = predicted hepatic clearance; type: in vitro ADME, dog
Description: Across species, 19d had acceptable fraction unbound in both plasma (fu (plasma): 0.03 (human), 0.041 (rat), 0.025 (cyno), 0.039 (dog) and 0.056 (mouse)) and brain (fu (brain): 0.034 (rat) and 0.081 (mouse)).

rat PO PBL study = type: in vivo; conditions: 3 mg/kg PO
Description: Thus, 19d was a stable chemical entity in vivo. […] Overall, the rat PK and CNS penetration was supportive of in vivo work and progression down the development flow-chart.

Sprague–Dawley rats = test: catalepsy (latency to withdraw); type: in vivo; conditions: rat, doses up to 10 mg/kg p.o., 100 min postdose
Description: In order to enable our target validation work, we first profiled PAM 19d in a rat locomotor battery to ensure that pharmacodynamic efficacy was not mistaken for gross effects on locomotion.[20] […] PK was performed in parallel to establish a PK/PD relationship.[24]
Control rats were injected with 1.5 mg/kg of haloperidol i.p. (dissolved in 8% lactic acid and taken to volume of 50 mL with sterile water) and were returned to their home cage for 90 min. Cataleptic behavior is determined by placing the forelimbs on a bar raised 6 cm above the table and recording the amount of time it takes for the rat to withdraw the forelimbs with a cutoff of 60 s. Data are expressed as mean latency to withdraw + SEM or percent inhibition of catalepsy + SEM.

satellite PK for NOR = type: in vivo; conditions: brain, rat, 210 min postdose
Description: Based on our previous work with the mGlu1 PAM 4,[6]−[9],[14]−[19] we first evaluated the ability of 19d to reverse MK-801 disruptions of novel object recognition (NOR) in rats (Figure 6).

[5] = brain exposure in rat AHL Cmax versus Ctrough study; type: in vivo
Description: Based on these positive behavioral data and the clear PK/PD relationship tied to achieving free brain levels at, or above, the mGlu1 PAM EC50, we next wanted to define the role of Cmax versus Ctrough drug (19d) concentrations in driving the PK/PD relationship. To accomplish this, pretreatment times and doses were calculated based upon previous PK (see Supporting Information Figure S3)[20] data to target free brain concentrations at and below the in vitro EC50 at the time of amphetamine challenge. Rats were pretreated with 3 mg/kg 19d or vehicle after habituation to the locomotor chambers are described in Figure 9A. Rats pretreated with 19d (10–60 mg/kg) or vehicle were administered compound prior to starting the amphetamine-induced hyperlocomotion experiment as depicted in Figure 9B-D. Ambulations were evaluated for 90 min post amphetamine treatment for all dosing groups. Pretreatment of 19d, chamber habituation, amphetamine treatment and ambulation recording times are outlined for each dosing group in Figure 9. Blood and brain samples were obtained at the end of testing (EOT) to determine 19d levels at the end of the study (Table 6).
The terminal free brain concentrations for this dosing group were 40 nM. […]

[6] = test system: Adrenergic alpha 1 (non-selective); test: Eurofins radioligand binding panel; parameters: species or system rat; conditions: antagonist radioligand
Description: (§4) Table S1. Eurofins Lead Profiling Screen Data
(§5) This is a radioligand binding panel of 80 targets including GPCRs, ion channels, transporters and nuclear hormones. Biochemical assay results are presented as the percent inhibition of specific […]
(§6) Results showing an inhibition or stimulation higher than 50% are considered to represent significant effect and are highlighted […]
(§7) Target / Protein Species % Inhibition at 10 […]

[7] = test system: Adrenergic alpha 2 (non-selective); test: Eurofins radioligand binding panel; parameters: species or system rat; conditions: antagonist radioligand
Description: as §4, §5, §6, §7

BB (non-selective) = test: Eurofins radioligand binding panel; parameters: species or system rat; conditions: agonist radioligand
Description: as §4, §5, §6, §7

T1 sequence (Q13255 19-1194): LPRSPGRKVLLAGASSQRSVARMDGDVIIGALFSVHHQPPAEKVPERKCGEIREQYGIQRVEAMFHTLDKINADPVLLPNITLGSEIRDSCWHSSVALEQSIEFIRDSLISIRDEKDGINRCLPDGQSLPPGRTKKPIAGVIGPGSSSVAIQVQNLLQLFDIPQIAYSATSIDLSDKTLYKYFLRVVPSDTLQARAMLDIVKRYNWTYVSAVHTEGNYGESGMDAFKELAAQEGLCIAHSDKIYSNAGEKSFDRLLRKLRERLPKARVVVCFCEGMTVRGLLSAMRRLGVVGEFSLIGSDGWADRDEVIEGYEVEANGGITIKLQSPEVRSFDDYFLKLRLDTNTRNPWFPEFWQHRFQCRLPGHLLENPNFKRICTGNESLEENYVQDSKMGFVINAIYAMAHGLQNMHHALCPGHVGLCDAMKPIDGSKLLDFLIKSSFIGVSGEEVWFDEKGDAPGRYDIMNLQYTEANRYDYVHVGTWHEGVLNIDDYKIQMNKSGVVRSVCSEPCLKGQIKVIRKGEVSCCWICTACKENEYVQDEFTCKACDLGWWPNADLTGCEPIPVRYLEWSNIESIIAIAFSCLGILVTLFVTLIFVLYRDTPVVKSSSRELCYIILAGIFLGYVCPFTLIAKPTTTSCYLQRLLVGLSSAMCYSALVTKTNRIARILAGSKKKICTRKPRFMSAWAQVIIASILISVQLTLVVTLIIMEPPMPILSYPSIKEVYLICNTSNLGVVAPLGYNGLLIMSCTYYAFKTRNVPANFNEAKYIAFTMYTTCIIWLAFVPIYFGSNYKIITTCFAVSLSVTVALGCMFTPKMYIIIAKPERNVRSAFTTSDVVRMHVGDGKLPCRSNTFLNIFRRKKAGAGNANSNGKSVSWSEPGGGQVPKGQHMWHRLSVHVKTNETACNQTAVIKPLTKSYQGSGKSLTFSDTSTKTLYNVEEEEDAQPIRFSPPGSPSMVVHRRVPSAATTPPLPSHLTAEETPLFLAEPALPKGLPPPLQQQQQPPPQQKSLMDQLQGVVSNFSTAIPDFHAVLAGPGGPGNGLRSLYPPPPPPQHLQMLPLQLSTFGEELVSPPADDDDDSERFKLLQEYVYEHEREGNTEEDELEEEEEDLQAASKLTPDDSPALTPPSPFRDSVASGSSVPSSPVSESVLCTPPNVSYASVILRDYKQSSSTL
Sequence of rat mGlu1 (P23385 19-1199): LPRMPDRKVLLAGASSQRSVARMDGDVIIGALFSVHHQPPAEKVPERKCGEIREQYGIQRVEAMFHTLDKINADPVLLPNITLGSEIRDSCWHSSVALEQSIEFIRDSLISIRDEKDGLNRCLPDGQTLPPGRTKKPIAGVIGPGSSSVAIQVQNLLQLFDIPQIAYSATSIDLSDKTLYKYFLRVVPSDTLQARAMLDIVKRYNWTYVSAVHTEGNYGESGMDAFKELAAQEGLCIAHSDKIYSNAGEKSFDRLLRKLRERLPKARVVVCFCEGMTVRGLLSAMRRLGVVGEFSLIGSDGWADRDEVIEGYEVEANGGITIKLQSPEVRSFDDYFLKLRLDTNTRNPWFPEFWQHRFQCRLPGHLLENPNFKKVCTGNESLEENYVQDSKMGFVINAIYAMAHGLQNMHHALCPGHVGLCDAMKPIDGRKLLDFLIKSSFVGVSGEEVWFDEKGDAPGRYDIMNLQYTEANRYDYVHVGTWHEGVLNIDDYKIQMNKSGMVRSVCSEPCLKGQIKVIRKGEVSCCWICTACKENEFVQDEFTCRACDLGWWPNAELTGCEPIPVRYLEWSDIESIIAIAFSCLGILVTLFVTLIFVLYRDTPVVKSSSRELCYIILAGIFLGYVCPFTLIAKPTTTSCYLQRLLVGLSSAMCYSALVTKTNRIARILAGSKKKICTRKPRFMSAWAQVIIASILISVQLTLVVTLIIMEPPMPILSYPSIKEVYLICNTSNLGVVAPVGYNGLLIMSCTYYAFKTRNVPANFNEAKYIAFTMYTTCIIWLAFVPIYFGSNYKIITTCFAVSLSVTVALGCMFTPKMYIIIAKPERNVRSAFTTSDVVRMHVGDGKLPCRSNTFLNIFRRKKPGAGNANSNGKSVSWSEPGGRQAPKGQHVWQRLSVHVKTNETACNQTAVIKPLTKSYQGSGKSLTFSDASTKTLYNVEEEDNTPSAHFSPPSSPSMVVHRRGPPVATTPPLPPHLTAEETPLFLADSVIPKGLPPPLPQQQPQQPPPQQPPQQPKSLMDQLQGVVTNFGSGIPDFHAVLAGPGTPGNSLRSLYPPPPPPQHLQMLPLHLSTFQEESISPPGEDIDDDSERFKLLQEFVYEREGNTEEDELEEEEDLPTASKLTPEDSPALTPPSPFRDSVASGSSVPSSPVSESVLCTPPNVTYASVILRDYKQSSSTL

In the case of `Cn1nc(-c2ccnn2C)cc1CNC(=O)c1cc(-c2ccco2)ccc1Cl` [Compound 19d, 2-Chloro-N-((1,2′-dimethyl-1H,2’H-[3,3′-bipyrazol]-5-yl)methyl)-5-(furan-2-yl)benzamide], the Kb (human mGlu1; human mGlu1, operational model of allosterism, read-out: estimated KB) is reported as 219 nM, the “log α” value (human mGlu1; panel B (human), one experiment in duplicate) is reported as 1.26 and the EC50 (human mGlu1; printed in Figure 4B) is reported as 46 nM. The EC50 (rat mGlu1; in Figure 4A) was 44 nM, the “log α” value (rat mGlu1; panel A (rat), one experiment in duplicate) was 0.95 and the Kb (rat mGlu1; rat mGlu1, operational model of allosterism, read-out: estimated KB) was 1040 nM. It also gave a Kb (rat mGlu1; rat mGlu1, printed in Figure 4A, read-out: KB) of 1040 nM, a solubility ([1]; FaSSGF, fassgf or other biorelevant, read-out: FaSSGF solubility) of 2.5 µM (≈ 0.99 µg/mL) and a solubility ([1]; FaSSIF, read-out: FaSSIF solubility) of 2.5 µM (≈ 0.99 µg/mL). It also gave a solubility kinetic ([1]; pH 7.4, aqueous buffer, kinetic from dmso stock) of 4.1 µM (≈ 1.62 µg/mL), a human fuplasma [2] of 0.03 and a rat fuplasma [3] of 0.041. For the same molecule, the “CLhep, dog” value [4] was 23 mL/min/kg, the “unbound brain concentration Br[unbound]” value (rat PO PBL study; at Tmax) was 100 nM and the Kp (rat PO PBL study; brain, 15 min to 7 h) was about 0.5. The catalepsy (Sprague–Dawley rats) was “lack of effect; also recorded: without effect”, the concentration at 210 min (satellite PK for NOR; 10 mg/kg PO, read-out: free brain concentration) was 73 nM and the Kp at 3.5 h (satellite PK for NOR; PO) was 0.34. For the same molecule, the “Cmax over rat in vitro potency” value ([5]; 60 mg/kg, at Tmax) was 6.8 fold, the concentration at 2.5 h ([5]; Sprague-Dawley, brain, oral, 3 mg/kg, pretreatment time 2.5 hr, read-out: Brain Unbound @EOT) was 40 nM and the concentration at 6.5 h ([5]; Sprague-Dawley, brain, oral, 10 mg/kg, pretreatment time 6.5 hr, read-out: Brain Unbound @EOT) was 44 nM. For the same molecule, the concentration at 15 h ([5]; Sprague-Dawley, brain, oral, 60 mg/kg, pretreatment time 15 hr, read-out: Brain Unbound @EOT) was 3 nM, the concentration at 30 h ([5]; Sprague-Dawley, brain, oral, 60 mg/kg, pretreatment time 30 hr, read-out: Brain Unbound @EOT) was 6 nM and the “% Inhibition at 10 µM” value [6] was 19%. For the same molecule, the “% Inhibition at 10 µM” value [7] was 1% and the “% Inhibition at 10 µM” value (BB (non-selective)) was -20%.
